The supplement of paper PMC10307832

Tests used:
Assay in all cases: relative viability (nuclei count vs DMSO), 5 days (fraction); higher = more cells survive
LK-2 = system: LK-2
Method in brief: (§1)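 A single step with final 0.05% Triton X-100, 1% formaldehyde and 1 ug/ml Hoechst fixed the cells and stained nuclei 5 days after treatment. Lung cancer cell lines in 1536-well plates had been treated by pin tool the day after seeding with one drug alone or a fixed anchor-drug dose plus five library-drug doses (not always all listed) in √10 steps, and nuclei were counted on 4× images. Relative viability is the ratio of nuclei in treated wells to nuclei in vehicle wells, taken as the median of duplicate plates.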

A-427 = system: A-427
Method in brief: as §1

NCI-H23 = system: NCI-H23
Method in brief: as §1

PC-3 [JPC-3] = system: PC-3 [JPC-3]
Method in brief: as §1

201T = system: 201T
Method in brief: as §1

LU99A = system: LU99A
Method in brief: as §1

RERF-LC-KJ = system: RERF-LC-KJ
Method in brief: as §1

LCLC-97TM1 = system: LCLC-97TM1
Method in brief: as §1

H3255 = system: H3255
Method in brief: as §1

NCI-H1651 = system: NCI-H1651
Method in brief: as §1

COR-L23 = system: COR-L23
Method in brief: as §1

NCI-H1563 = system: NCI-H1563
Method in brief: as §1

SW 1573 = system: SW 1573
Method in brief: as §1

NCI-H1650 = system: NCI-H1650
Method in brief: as §1

NCI-H1944 = system: NCI-H1944
Method in brief: as §1

LCLC-103H = system: LCLC-103H
Method in brief: as §1

PC-14 = system: PC-14
Method in brief: as §1

NCI-H1793 = system: NCI-H1793
Method in brief: as §1

NCI-H2347 = system: NCI-H2347
Method in brief: as §1

SW 900 = system: SW 900
Method in brief: as §1

NCI-H650 = system: NCI-H650
Method in brief: as §1

NCI-H460 = system: NCI-H460
Method in brief: as §1

NCI-H727 = system: NCI-H727
Method in brief: as §1

NCI-H838 = system: NCI-H838
Method in brief: as §1

C[C@@H]1CN(CC(=O)Nc2ccc3c(c2)Cc2cccc(-c4cc(=O)cc(N5CCOCC5)o4)c2S3)C[C@H](C)O1 + COc1cc2c(Oc3ccc(NC(=O)C4(C(=O)Nc5ccc(F)cc5)CC4)cc3F)ccnc2cc1OCCCN1CCOCC1 [Foretinib] (partner 0.25 µM)
relative viability (LK-2; first compound 0.1265 µM): 1.27 | relative viability (LK-2; first compound 0.4 µM): 1.16 | relative viability (LK-2; first compound 4 µM): 1.47 | relative viability (A-427; first compound 0.04 µM): 1.05 | relative viability (A-427; first compound 0.1265 µM): 1.17 | relative viability (A-427; first compound 0.4 µM): 1.11 | relative viability (A-427; first compound 4 µM): 1.22 | relative viability (NCI-H23; first compound 0.04 µM): 0.95 | relative viability (NCI-H23; first compound 0.1265 µM): 0.85 | relative viability (NCI-H23; first compound 0.4 µM): 0.945 | relative viability (NCI-H23; first compound 4 µM): 0.844 | relative viability (PC-3 [JPC-3]; first compound 0.04 µM): 1.02 | relative viability (PC-3 [JPC-3]; first compound 0.1265 µM): 0.998 | relative viability (PC-3 [JPC-3]; first compound 0.4 µM): 0.93 | relative viability (PC-3 [JPC-3]; first compound 4 µM): 0.884 | relative viability (201T; first compound 0.04 µM): 0.93 | relative viability (201T; first compound 0.1265 µM): 1.06 | relative viability (201T; first compound 4 µM): 0.936 | relative viability (LU99A; first compound 0.04 µM): 0.79 | relative viability (LU99A; first compound 0.1265 µM): 0.959 | relative viability (LU99A; first compound 0.4 µM): 1.02 | relative viability (LU99A; first compound 4 µM): 0.854 | relative viability (RERF-LC-KJ; first compound 0.04 µM): 0.826 | relative viability (RERF-LC-KJ; first compound 0.1265 µM): 0.88 | relative viability (RERF-LC-KJ; first compound 0.4 µM): 0.827 | relative viability (RERF-LC-KJ; first compound 4 µM): 0.871 | relative viability (LCLC-97TM1; first compound 0.04 µM): 0.902 | relative viability (LCLC-97TM1; first compound 0.1265 µM): 0.862 | relative viability (LCLC-97TM1; first compound 0.4 µM): 0.959 | relative viability (LCLC-97TM1; first compound 4 µM): 0.969 | relative viability (H3255; first compound 0.04 µM): 1.02 | relative viability (H3255; first compound 0.1265 µM): 0.837 | relative viability (H3255; first compound 0.4 µM): 0.677 | relative viability (H3255; first compound 4 µM): 0.783 | relative viability (NCI-H1651; first compound 0.04 µM): 0.924 | relative viability (NCI-H1651; first compound 0.1265 µM): 1.14 | relative viability (NCI-H1651; first compound 0.4 µM): 0.96 | relative viability (NCI-H1651; first compound 4 µM): 0.679 | relative viability (COR-L23; first compound 0.04 µM): 0.991 | relative viability (COR-L23; first compound 0.1265 µM): 1.05 | relative viability (COR-L23; first compound 0.4 µM): 1.02 | relative viability (COR-L23; first compound 4 µM): 0.929 | relative viability (NCI-H1563; first compound 0.04 µM): 0.831 | relative viability (NCI-H1563; first compound 0.1265 µM): 0.894 | relative viability (NCI-H1563; first compound 0.4 µM): 0.908 | relative viability (NCI-H1563; first compound 4 µM): 0.788 | relative viability (SW 1573; first compound 0.04 µM): 0.683 | relative viability (SW 1573; first compound 0.1265 µM): 0.946 | relative viability (SW 1573; first compound 0.4 µM): 0.936 | relative viability (SW 1573; first compound 4 µM): 0.999 | relative viability (NCI-H1650; first compound 0.04 µM): 1.07 | relative viability (NCI-H1650; first compound 0.1265 µM): 1.14 | relative viability (NCI-H1650; first compound 0.4 µM): 1.04 | relative viability (NCI-H1650; first compound 4 µM): 0.678 | relative viability (NCI-H1944; first compound 0.04 µM): 0.761 | relative viability (NCI-H1944; first compound 0.1265 µM): 0.888 | relative viability (NCI-H1944; first compound 0.4 µM): 0.926 | relative viability (NCI-H1944; first compound 4 µM): 0.912 | relative viability (LCLC-103H; first compound 0.04 µM): 0.777 | relative viability (LCLC-103H; first compound 0.1265 µM): 0.671 | relative viability (LCLC-103H; first compound 0.4 µM): 0.671 | relative viability (LCLC-103H; first compound 4 µM): 0.608 | relative viability (PC-14; first compound 0.04 µM): 0.94 | relative viability (PC-14; first compound 0.1265 µM): 0.864 | relative viability (PC-14; first compound 0.4 µM): 0.968 | relative viability (PC-14; first compound 4 µM): 0.902 | relative viability (NCI-H1793; first compound 0.04 µM): 0.556 | relative viability (NCI-H1793; first compound 0.1265 µM): 0.72 | relative viability (NCI-H1793; first compound 0.4 µM): 0.809 | relative viability (NCI-H1793; first compound 4 µM): 0.476 | relative viability (NCI-H2347; first compound 0.04 µM): 0.758 | relative viability (NCI-H2347; first compound 0.1265 µM): 0.761 | relative viability (NCI-H2347; first compound 0.4 µM): 1.04 | relative viability (NCI-H2347; first compound 4 µM): 1.2 | relative viability (SW 900; first compound 0.04 µM): 0.809 | relative viability (SW 900; first compound 0.1265 µM): 0.836 | relative viability (SW 900; first compound 0.4 µM): 0.816 | relative viability (SW 900; first compound 4 µM): 0.782 | relative viability (NCI-H650; first compound 0.04 µM): 0.993 | relative viability (NCI-H650; first compound 0.1265 µM): 0.977 | relative viability (NCI-H650; first compound 0.4 µM): 1.03 | relative viability (NCI-H650; first compound 4 µM): 0.875 | relative viability (NCI-H460; first compound 0.04 µM): 0.898 | relative viability (NCI-H460; first compound 0.1265 µM): 1.02 | relative viability (NCI-H460; first compound 0.4 µM): 1.1 | relative viability (NCI-H460; first compound 4 µM): 0.862 | relative viability (NCI-H727; first compound 0.04 µM): 0.98 | relative viability (NCI-H727; first compound 0.1265 µM): 0.783 | relative viability (NCI-H727; first compound 0.4 µM): 0.826 | relative viability (NCI-H727; first compound 4 µM): 1 | relative viability (NCI-H838; first compound 0.04 µM): 0.871 | relative viability (NCI-H838; first compound 0.1265 µM): 0.952 | relative viability (NCI-H838; first compound 0.4 µM): 0.969 | relative viability (NCI-H838; first compound 4 µM): 0.723
